Measurements as given in the NIST ThermoML archive (doi:10.1016/j.jct.2013.11.028).
Numbers after ± are expanded uncertainties.

Columns and labels:
[1] = 298.2 K; 101.33 kPa; Liquid; Vibrating tube method
[2] = refractive index (Na D-line) (dimensionless); conditions: 298.2 K; 101.33 kPa; Liquid; Standard Abbe refractometry

Row | SMILES | mass density [1] | refractive index [2]
1 | CCCC(=O)O [butanoic acid] | 952.68 ± 0.23 kg/m3 | 1.3977 ± 0.0008
2 | O [water] |  | 1.3325 ± 0.0008
3 | CC(C)CCO [3-methylbutan-1-ol] | 809.05 ± 0.4 kg/m3 | 1.4085 ± 0.0008
4 | CCCCCO [pentan-1-ol] | 810.92 ± 0.24 kg/m3 | 1.4073 ± 0.0008
5 | CCCCO [butan-1-ol] | 805.6 ± 0.24 kg/m3 | 1.3968 ± 0.0008
